From patent publication US9566265B2, “Carbazole compounds and therapeutic uses of the compounds” (Incuron, LLC, priority 2008, dated 2017)

Columns and labels:
p53 = p53 activation assay, p53 responsive luciferase reporter cell line; assay type: cell-based, human; details: Homo sapiens, 16 h, HT1080-L or RCC45ConALuc reporter cells, 16 h; read-out: EC50 value (p53 activation)
Description: The potency of a present carbazole compound is determined by measuring an ability of the compound to inhibit NF-κB activity or to activate p53. […] Theoretically, such assays of the dose-response effect of activator compounds can be described as a sigmoidal curve expressing a degree of activation as a function of concentration. The curve also theoretically passes through a point at which the concentration is sufficient to increase activity to a level that is 50% that of the difference between a baseline and the maximal activity in the assay. […] Determination of an EC50 value is made using conventional biochemical (acellular) assay techniques or cell-based assay techniques.
The potency of a carbazole compound is determined by measuring an ability of the compound to activate p53.
The p53 activation assay for determination of the EC50 value was performed as follows:
HT1080-L (human fibrosarcoma cells with ConALuc reporter)
RCC45ConALuc (human renal cell carcinoma cell line with ConALuc reporter)
1. Two types of standard cells were used, either HT1080-L or RCC45ConALuc cells. Both cell lines stably express a p53 responsive luciferase reporter construct.
2. HT1080-L cells were grown in DMEM medium containing 10% FBS. RCC45ConALuc cells were grown in RPMI medium containing 10% FBS (Pen/Strep can be added to a final concentration of 1%, if desired). Both cell lines were grown in a humidified incubator at 37° C. with 5% CO2. For normal culturing, both cell lines were split using 1× trypsin-EDTA at a ratio of 1:20 for HT1080-L and 1:5 for RCC45ConALuc cells every 3-4 days (when cells are 80-90% confluent).
3. A day before the experiment, the cells are trypsinized for about 5 minutes in 1× tripsin/EDTA solution in 37° C. incubator and plated in 96 well plates. HT1080-L cells were seeded at a density of 1×10^4/well in standard DMEM medium in a volume of 50 μl. RCC45ConALuc were seeded at a density of 2×10^4/well in the volume of 50 uL in standard RPMI medium.
4. The next day, various carbazole compounds were prepared by dilution of stock solutions in standard DMEM medium such that the cells were treated with the final chemical concentrations in Table 1 below. Stock solutions were made up in DMSO. Typically, chemicals were made up as 20 mM stock solutions.
5. Each tested compound used two rows of a 96-well plate, thus four compounds (e.g., W, X, Y, Z) were tested in one plate simultaneously. In addition to test compounds, each plate included positive and negative controls. As positive control, 9aa was used at a dose of 3 μM. As a negative control, DMSO was used in final concentration 0.1%.
1. Dilutions of chemicals added to the plate were made up as 2× concentrations in standard DMEM and added to corresponding well in a volume of 50 μl.
2. Chemicals were diluted in standard DMEM by two time serial dilutions starting from 40 μM (2× of highest concentration, e.g., 20 μM). For one cell line, the minimum volume was 125 μL of 2× working solution of chemical of each concentration in standard DMEM.
4. Sixteen hours following compound addition, all wells with the highest concentrations of compounds are checked microscopically for the presence of toxic effect, because death of cells caused by compounds may not allow detecting luciferase activity. If cytotoxocity is evident, other doses of the same compounds were checked for the presence of toxicity. The lowest dose causing toxic effect was recorded.
5. After microscopic examination, 15 μl of Bright Glo luciferase assay system were added to each well and after 5 min incubation at RT, the plates were read on a 96 well plate luminometer with a measurement time of 0.1 sec. A shaking step was included before measurement.
6. The folds of luciferase activation for each concentration of each chemical were calculated by dividing the detected luciferase activity at each chemical concentration by the average of the luciferase activity for the DMSO control on the same plate.

γH2AX = γH2AX staining (Table I); assay type: cell-based
ATM/ATR = ATM/ATR activation (Table I); assay type: cell-based
Chk1/2 = Chk1/2 phosphorylation (Table I); assay type: cell-based
Topo II [1] = assay: Topo II inhibition in cells (Table I); assay type: cell-based
Topo II [2] = assay: Topo II inhibition in vitro (Table I); assay type: biochemical
[3] = system: thirteen cancer cell lines; assay: relative cell survival of cancer cell lines, methylene blue staining (FIG. 11); assay type: cell-based; details: 24 hours treatment, then compound-free medium
Description: FIG. 11 contains plots of concentration of Compound 100 (μM) vs. relative cell survival for thirteen cancer cell lines showing that a present carbazole compound is an effective agent against numerous types of cancer;
Each of the cell lines presented in FIG. 11 was seeded into 96 well plates. The next day, cells were treated with a range of concentrations of Compound 100. Treatment occurred for 24 hours, at which time compound-filled medium was replaced with compound-free medium and cells were allowed to grow until the control wells, which were treated with only vehicle control (DMSO), reached a monolayer (typically within 48 hours). Cells then were fixed and stained with 0.5% methylene blue in 50% methanol. The dye was eluted with 1% SDS and the absorbance measured at 650 nm. Data is presented as the absorbance at 650 nm versus the concentration of Compound 100.

In the case of `CCN(CC)CCn1c2ccc([N+](=O)[O-])cc2c2cc([N+](=O)[O-])ccc21` [Compound 100], the EC50 (p53) is reported as 1300 nM, the γH2AX staining (γH2AX) is reported as “no” and the ATM/ATR activation (ATM/ATR) is reported as “no”. The Chk1/2 phospho (Chk1/2) was “no”, the “Topo II inhibition in cells” value (Topo II [1]) was “no” and the “Topo II inhibition in vitro” value (Topo II [2]) was “ligation”. The “anti-cancer activity against tested cancer cells” value [3] was “significant anti-cancer activity” and the Ames test (Ames test) was “negative”.
